Source: patent US8629251B2, “Specific detection and quantification of phosphatidic acid using an Arabidopsis trigalactosyldiacylglycerol-4 (TGD4) protein” (Board of Trustees of Michigan State University, priority 2008, dated 2014)
Where no end group is shown, it is not given here.

Tests used:
[1] = Liposome-association assay of DsRed-TGD2 fusion proteins; assay type: binding; conditions: PA/PC or 100% PA liposomes
Method: In this assay, purified recombinant proteins were incubated with liposomes for 30 min at 30° C. before centrifugation at 20,000 g for 10 min to pellet the liposomes. Proteins bound to the liposomes were found associated with the lipid pellet, whereas non-binding proteins remained in the supernatant. In an effort to determine the optimal concentration of PA required for high specificity binding, a PA/PC liposome mixture containing varying weight fractions of PA was prepared and incubated with DsRed-TGD2CWT or DsRed alone.
The liposome association assay was performed as previously reported. (31). Briefly, lipids (dioleoyl-phosphatidylcholine, DOPC or dioleoyl-PA, DOPA) were incubated in TBS (50 mM Tris-HCl, pH 7; 0.1 M NaCl) at 37° C. for an hour followed by vigorous vortexing for 5 min. The liposomes were precipitated at 20,000 g and washed twice with ice-cold TBS.
Liposomes (200 μg) were mixed with purified DsRed-TGD2 fusion protein and TBS to make a final 100 μL solution. […] The liposome pellet mixed with sample buffer was analyzed by SDS-PAGE (28). […]
The protein band was visualized by chemiluminescent detection kit from Sigma. The autoradiography film was scanned, distinct protein bands were quantified using computer software Multi Gauge V3.0 (Fujifilm USA, Valhalla, N.Y.) and resulted data were plotted and analyzed by OriginPro8 (Origin lab corporation, Northampton, Mass.).

[2] = molecular target: T1, Arabidopsis TGD4, DsRED-TGD4-His, full-length TGD4 1-479 (SEQ ID NO: 132) (Arabidopsis thaliana, UniProt Q9M903); experiment: Liposome association assay, DsRED-TGD4-His; assay type: binding; conditions: 40 mol % PtdOH and 60 mol % PtdCho liposomes, FIG. 18C, D
T1 sequence (Q9M903 1-479): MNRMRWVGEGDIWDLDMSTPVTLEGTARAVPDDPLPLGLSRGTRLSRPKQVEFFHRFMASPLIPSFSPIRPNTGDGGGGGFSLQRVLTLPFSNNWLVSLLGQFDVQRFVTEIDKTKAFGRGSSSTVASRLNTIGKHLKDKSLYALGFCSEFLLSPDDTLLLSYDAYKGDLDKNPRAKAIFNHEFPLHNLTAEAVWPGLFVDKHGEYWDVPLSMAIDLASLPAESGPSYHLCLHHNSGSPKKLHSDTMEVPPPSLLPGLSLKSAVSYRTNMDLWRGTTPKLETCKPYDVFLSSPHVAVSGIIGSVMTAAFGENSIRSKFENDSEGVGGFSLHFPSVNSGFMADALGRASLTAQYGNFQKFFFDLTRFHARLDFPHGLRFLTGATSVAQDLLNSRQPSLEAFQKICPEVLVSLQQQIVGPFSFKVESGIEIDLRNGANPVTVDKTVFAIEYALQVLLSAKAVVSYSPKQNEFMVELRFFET
Method: Liposome Association Assay:
(§1) The liposome association assay was adapted from (Awai et al., 2006, Lu and Benning, 2009) with minor modifications. Dioleoyl-PtdCho and PtdOH with different acyl chain lengths and desaturation levels were used for making liposomes. In other liposomes 1-palmitoyl-2-(12-((7-nitro-2-1,3-benzoxadiazol-4-yl)amino)dodecanoyl)-sn-glycero-3-phosphate (NBD-PtdOH; Avanti, Alabaster, Ala.) was used. The lipids were mixed at indicated ratios to give a total lipid amount of 250 μg. The lipids were dried under a stream of nitrogen, resuspended in 0.5 ml TBS buffer with 0.2 M choline chloride and hydrated at 37° C. for 1 hour followed by vigorous vortexing for 2 minutes. The resulting multi-lamellar vesicles were centrifuged at 13,000×g for 10 minutes and then washed once with TBS buffer containing 0.2 M choline chloride. The liposomes were resuspended into 100 μl TBS buffer with 0.2 M choline chloride and incubated with 2 μg purified DsRED-TGD4-His protein and its derivatives. The protein liposome mixture was incubated on ice for 30 minutes followed by centrifugation at 13,000×g for 10 minutes and two washes with 500 μl TBS containing 0.2 M choline chloride. The resulting protein-liposome pellet was resuspended in 20 μl 2× Laemmli buffer (Laemmli, 1970) and processed by SDS-PAGE (Shapiro and Maizel, 1969).

DsRED-TGD4-His = molecular target: T2, DsRED-TGD4-His (Arabidopsis thaliana, UniProt Q9M903); experiment: Precipitation / stabilizer test of DsRED-TGD4-His; assay type: physicochemical; conditions: 5 μg protein with stabilizer, 4° C., 2 hours, 13,000×g pellet by SDS-PAGE
T2 construct: the DsRED protein was fused to the N-terminus of the full-length TGD4 protein; made in house; host or cells: E. coli BL21 (DE3)
T2 sequence (Q9M903 1-479): T1 sequence (Q9M903 1-479)
Method: FIG. 23A: 5 μg DsRED-TGD4-His was incubated with various protein stabilizers at 4° C. for 2 hours followed by centrifugation at 13,000×g for 10 minutes. The pellet was analyzed by SDS-PAGE. TBS: Tris-buffered saline, Glycerol: 20% glycerol; PEG: 20% polyethylene; Pectin: 5% pectin; ChoCl: 1 M choline chloride; Glycine: 1 M glycine; Urea: 1 M urea; BSA: 0.5 mg/ml bovine serum albumin; PBS: phosphate-buffered saline.
FIG. 23B: 5 μg DsRED-TGD4-His was treated with either 2 M sodium chloride or choline chloride as described above.
Lipid binding properties of TGD4 were investigated by producing TGD4 fused to DsRED. The DsRED protein is a red fluorescent protein of the coral Discosoma sp. (Gross et al., 2000, herein incorporated by reference).

[3] = Liposome association assay of DsRED-TGD4-His and derivatives; assay type: binding; conditions: dioleoyl-PtdOH/dioleoyl-PtdCho liposomes, 0 to 80% PtdOH by weight, FIG. 19
Method: as §1

[4] = Protein-lipid overlay assay of DsRED-TGD4 fusion proteins; assay type: binding
Method: The protein-lipid overlay assay was modified from (Awai et al., 2006, Lu and Benning, 2009). Phosphoinositol-4,5-bisphosphate PIP2) lipid strips were purchased from Echelon Biosciences (Salt Lake City, Utah). Lipids spotted onto membranes were purchased from Avanti Polar Lipids (Alabaster, Al.) as well as Larodan Fine Chemicals (Malmo, Sweden). Lipids (10 nmol) were suspended in 20 μl spotting buffer (250 μl chloroform, 500 μl methanol, 200 μl 50 mM HCl, 2 μl 1% (w/v) Ponseau S (Sigma, St. Louis, Mo.)) and spotted onto Amersham Hybond-C Extra membranes (GE Healthcare, Piscataway, N.J.) followed by drying for 1 hour in a fume hood. The lipid membranes were then blocked in 3% (w/v) bovine serum albumin (BSA) in TBST buffer (TBS with 0.25% (v/v) Tween 20) for 2 hours at room temperature. Purified DsRED-TGD4-His fusion proteins were added at 1 μg/ml final concentration and incubated overnight at 4° C. followed by washing 3 times in TBST. Lipid membranes were then incubated with 1:2000 diluted His antibody (Sigma) in blocking buffer for 2 hours at room temperature followed by 2 washes with TBST. The membranes were processed for immunoblotting as described below.

Molecule: DR-25: DsRed fused to the TGD2 minimal PA binding domain, residues 201-225 (SEQ ID NO: 12) (IMPRNPIPEPSVGPLHPECGKEGLI; also: fused to DsRed, end not given here; UniProt Q9LTR2 201-225, looked up, fragment)
- PA binding in liposome-association assay ([1]; listed as 25-amino-acid segment): necessary and sufficient for PtdOH binding
- PA binding in liposome-association assay ([1]; listed as region between residues 201 and 225 (SEQ ID NO:12)): much less overall binding

Molecule: CCCCCCCCCCCCCCCC(=O)OC[C@H](COP(=O)(O)O)OC(=O)CCCCCCCCCCCCCCC [dipalmitoyl PtdOH, dipalmitoyl phosphatidic acid]
- binding to PtdOH species in liposomes [2]: bind

Molecule: CCCCCCCCCCCCCCCCCC(=O)OC[C@H](COP(=O)(O)O)OC(=O)CCCCCCCCCCCCCCCCC [distearoyl PtdOH, distearoyl phosphatidic acid]
- binding to PtdOH species in liposomes [2]: appeared to be stronger

Molecule: [Cl-].[Na+] [NaCl, sodium chloride]
- stabilization of DsRED-TGD4-His against precipitation (DsRED-TGD4-His): not able to stabilize DsRED-TGD4-His

Molecule: CCCCCCCCCCCCCCCC(=O)OC[C@H](COP(=O)(O)O)OC(=O)CCCCCCCCCCCNc1ccc([N+](=O)[O-])c2nonc12 [1-palmitoyl-2-(12-((7-nitro-2-1,3-benzoxadiazol-4-yl)amino)dodecanoyl)-sn-glycero-3-phosphate]
- binding to PtdOH species in liposomes [2]: did not bind

Molecule: C[N+](C)(C)CCO.[Cl-] [Choline chloride, choline chloride]
- stabilization of DsRED-TGD4-His against precipitation (DsRED-TGD4-His): minimize precipitation
- stabilization of DsRED-TGD4-His against precipitation (DsRED-TGD4-His; listed as choline chloride): stabilized DsRED-TGD4-His

B1: DsRED-His: DsRED-His protein itself, control without TGD4 (protein, UniProt Q9U6Y8 1-225, looked up)
Red fluorescent protein …: MRSSKNVIKEFMRFKVRMEGTVNGHEFEIEGEGEGRPYEGHNTVKLKVTKGGPLPFAWDILSPQFQYGSKVYVKHPADIPDYKKLSFPEGFKWERVMNFEDGGVVTVTQDSSLQDGCFIYKVKFIGVNFPSDGPVMQKKTMGWEASTERLYPRDGVLKGEIHKALKLKDGGHYLVEFKSIYMAKKPVQLPGYYYVDSKLDITSHNEDYTIVEQYERTEGRHHLFL
modifications: His-tag
notes: DsRED-His protein itself, control without TGD4
- PtdOH binding affinity of TGD4 derivatives [3]: Except for DsRED-His alone, tested recombinant fusion proteins bound to PtdOH-containing liposomes
- lipid binding in overlay, phospholipids ([4]; commercially available membranes, FIG. 18A): not observed to bind to any of the lipids on either membrane tested
- lipid binding in overlay, plant/chloroplast lipids ([4]; lipids manually spotted onto membranes, FIG. 18B): not observed to bind to any of the lipids on either membrane tested
